Results from US11802131B2, “Glutarimides for medical treatment” (C4 Therapeutics, Inc., priority 2017, dated 2023).

These compounds were tested against hCereblon(M1-L442)_hDDB1(M1-H1140) (Homo sapiens (Human), UniProt Q96SW2) (assay: Fluorescence direct binding protocol (tryptophan fluorescence titration)). Settings: 20° C., excited at 280 nm, recorded at 340 nm, assay buffer 50 mM Hepes 7.4 200 mM NaCl; read-out: Fluorescence h-Cereblon_DDB1 Mean Kd_EQ.
Procedure: Fluorescence Direct Binding Protocol
Determination of the affinities of compounds to protein containing one or more tryptophan is measurable by monitoring the fluorescence emission in direct mode. The measurements depending on the protein available amounts are performed either manually in a cuvette on ISS-PC1 photon counting spectrofluorometer or automatically in well plates on a fluorescence plate reader device. Fluorescence titrations are performed at 20° C. in the chosen binding assay buffer by using a defined constant protein concentration against ligand concentration variations. Small aliquots of known ligand concentration solubilized in DMSO were added and the fluorescence, excited at 280 nm, was recorded at 340 nm. The fluorescence intensity was corrected for protein dilution and for the filter effect (Birdsall et al.^72).
1) Optimization of measurement parameters to minimize protein consumption and to minimize the dilution effect and the DMSO content
2) Titration measurements of the protein against ligand by at least 12 titration steps to obtain a good s-curve fit
3) Repeat the same titration measurements with the ligand alone to enable correction
4) Check the stability of the protein once by titration against DMSO alone
5) Determination of the molar extinction coefficients of the ligand at 280 and 340 nm with help of an UV-spectrophotometer
6) Use Excel template for the correction of the measured raw data
7) Use GraphPad Prism software for the quadratic binding fit and the KD evaluation.

hCereblon(M1-L442)_hDDB1(M1-H1140), sequence (Q96SW2 whole entry): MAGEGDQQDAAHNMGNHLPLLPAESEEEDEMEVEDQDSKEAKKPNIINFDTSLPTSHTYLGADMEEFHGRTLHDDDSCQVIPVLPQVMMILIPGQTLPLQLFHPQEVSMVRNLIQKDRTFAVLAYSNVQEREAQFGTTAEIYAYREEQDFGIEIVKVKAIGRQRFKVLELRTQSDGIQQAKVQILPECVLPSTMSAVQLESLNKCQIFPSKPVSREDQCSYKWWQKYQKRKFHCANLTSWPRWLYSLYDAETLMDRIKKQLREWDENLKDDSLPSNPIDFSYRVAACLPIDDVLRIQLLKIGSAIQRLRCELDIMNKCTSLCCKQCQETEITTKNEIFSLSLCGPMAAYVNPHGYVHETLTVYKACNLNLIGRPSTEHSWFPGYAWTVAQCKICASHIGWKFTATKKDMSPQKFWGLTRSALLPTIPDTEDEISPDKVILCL
hCereblon(M1-L442)_hDDB1(M1-H1140), sequence (Q16531 whole entry partner): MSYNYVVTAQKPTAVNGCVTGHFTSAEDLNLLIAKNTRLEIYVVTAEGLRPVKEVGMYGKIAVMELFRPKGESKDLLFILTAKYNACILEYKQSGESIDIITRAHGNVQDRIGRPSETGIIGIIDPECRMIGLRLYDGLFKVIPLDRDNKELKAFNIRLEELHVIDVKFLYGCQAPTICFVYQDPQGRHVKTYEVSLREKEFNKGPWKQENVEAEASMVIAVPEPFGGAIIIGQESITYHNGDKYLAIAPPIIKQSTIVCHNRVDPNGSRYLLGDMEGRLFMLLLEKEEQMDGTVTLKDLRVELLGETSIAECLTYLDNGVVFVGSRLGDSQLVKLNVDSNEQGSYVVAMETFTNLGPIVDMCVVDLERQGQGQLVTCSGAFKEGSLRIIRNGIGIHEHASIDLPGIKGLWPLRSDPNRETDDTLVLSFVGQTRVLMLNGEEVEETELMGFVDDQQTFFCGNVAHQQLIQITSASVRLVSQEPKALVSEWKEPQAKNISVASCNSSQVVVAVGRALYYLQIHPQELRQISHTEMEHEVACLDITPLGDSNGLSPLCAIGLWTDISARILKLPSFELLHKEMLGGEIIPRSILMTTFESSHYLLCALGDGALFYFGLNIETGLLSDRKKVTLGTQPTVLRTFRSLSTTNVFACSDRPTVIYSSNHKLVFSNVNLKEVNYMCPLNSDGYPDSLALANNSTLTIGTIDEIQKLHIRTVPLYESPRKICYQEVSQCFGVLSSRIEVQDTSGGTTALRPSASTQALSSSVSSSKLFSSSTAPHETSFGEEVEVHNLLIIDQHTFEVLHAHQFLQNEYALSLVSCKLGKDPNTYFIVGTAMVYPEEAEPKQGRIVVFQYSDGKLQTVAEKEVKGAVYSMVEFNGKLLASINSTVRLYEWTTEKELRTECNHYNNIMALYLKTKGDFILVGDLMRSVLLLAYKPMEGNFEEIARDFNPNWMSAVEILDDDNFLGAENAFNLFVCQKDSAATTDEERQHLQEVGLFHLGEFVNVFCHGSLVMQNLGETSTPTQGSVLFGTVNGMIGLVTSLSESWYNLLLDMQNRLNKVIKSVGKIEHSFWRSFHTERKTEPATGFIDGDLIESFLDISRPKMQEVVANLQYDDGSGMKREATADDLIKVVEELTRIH

Kd [nM] | Compound
27 | O=C1CC[C@H](NC(=O)Cc2ccccc2)C(=O)N1 [Example 1, (S)-N-(2,6-Dioxo-3-piperidinyl)benzeneacetamide]
8 | O=C1CC[C@H](NC(=O)c2cnn3cccnc23)C(=O)N1 [Example 56, (S)-N-(2,6-Dioxopiperidin-3-yl)pyrazolo[1,5-a]pyrimidine-3-carboxamide]
10 | O=C1CC[C@@H](NC(=O)N2CCc3cccnc32)C(=O)N1 [Example 36, (R)-N-(2,6-Dioxopiperidin-3-yl)-2,3-dihydro-1H-pyrrolo[2,3-b]pyridine-1-carboxamide]
5 | O=C1CC[C@H](NC(=O)C2CCOc3ccccc32)C(=O)N1 (stereo partly drawn) [Example 31, N-[(3S)-2,6-Dioxo-3-piperidyl]chromane-4-carboxamide]
4 | O=C1CC[C@H](NC(=O)N2CCCc3cccnc32)C(=O)N1 [Example 30, (S)-N-(2,6-Dioxopiperidin-3-yl)-3,4-dihydro-1,8-naphthyridine-1 (2H)-carboxamide]
23 | O=C1CC[C@H](NC(=O)c2csc3ccccc23)C(=O)N1 [Example 25, (S)-N-(2,6-Dioxopiperidin-3-yl)benzo[b]thiophene-3-carboxamide]
18 | COC(=O)c1ccc2c(C(=O)N[C@H]3CCC(=O)NC3=O)c[nH]c2c1 [Example 42, Methyl (S)-3-((2,6-dioxopiperidin-3-yl)carbamoyl)-1H-indole-6-carboxylate]
4 | O=C1CC[C@@H](NC(=O)[C@@H]2CCCc3ccccc32)C(=O)N1 [Example 45, (1R)-N-[(3R)-2,6-Dioxopiperidin-3-yl]-1,2,3,4-tetrahydronaphthalene-1-carboxamide]
1 | O=C1CC[C@H](NC(=O)c2coc3ccccc23)C(=O)N1 [Example 21, (S)-N-(2,6-Dioxopiperidin-3-yl)benzofuran-3-carboxamide]
4 | O=C1CCC(NC(=O)[C@@H]2CCCc3ccccc32)C(=O)N1 (stereo partly drawn) [Example 14, (1R)-N-(2,6-Dioxopiperidin-3-yl)-1,2,3,4-tetrahydronaphthalene-1-carboxamide]
2 | O=C1CC[C@@H](NC(=O)c2ccc3ccccn23)C(=O)N1 [Example 53, (R)-N-(2,6-Dioxopiperidin-3-yl)indolizine-3-carboxamide]
< 1 | O=C1CC[C@H](NC(=O)c2cnn3ccccc23)C(=O)N1 [Example 47, (S)-N-(2,6-Dioxopiperidin-3-yl)pyrazolo[1,5-a]pyridine-3-carboxamide]
3 | O=C1CC[C@H](NC(=O)[C@H]2CCCc3ccccc32)C(=O)N1 [Example 27, (S)-N-((S)-2,6-Dioxopiperidin-3-yl)-1,2,3,4-tetrahydronaphthalene-1-carboxamide]
37 | Cc1sc2c(c1C)C(c1ccc(Cl)cc1)=N[C@@H](CC(=O)NCCCCCC(=O)N1CC[C@H](C(=O)N[C@@H]3CCC(=O)NC3=O)c3ccccc31)c1nnc(C)n1-2 [Example B, (4S)-1-[6-[[2-[(9S)-7-(4-Chlorophenyl)-4,5,13-trimethyl-3-thia-1,8,11,12-tetrazatricyclo[8.3.0.02,6]trideca-2(6),4,7,10,12-pentaen-9-yl]acetyl]amino]hexanoyl]-N-[(3R)-2,6-dioxo-3-piperidyl]-3,4-dihydro-2H-quinoline-4-carboxamide]
2 | O=C1CCC(NC(=O)c2coc3ccccc23)C(=O)N1 (centres unmarked) [Example 12, N-(2,6-Dioxopiperidin-3-yl)benzofuran-3-carboxamide]
< 1 | O=C1CC[C@H](NC(=O)C2CCNc3ccccc32)C(=O)N1 (stereo partly drawn) [Example 37, N-[(3S)-2,6-Dioxo-3-piperidyl]-1,2,3,4-tetrahydroquinoline-4-carboxamide]
9 | O=C1CC[C@@H](NC(=O)c2csc3ccccc23)C(=O)N1 [Example 24, (R)-N-(2,6-Dioxopiperidin-3-yl)benzo[b]thiophene-3-carboxamide]
1 | O=C1CC[C@H](NC(=O)c2cnc3ccccn23)C(=O)N1 [Example 54, (S)-N-(2,6-Dioxopiperidin-3-yl)imidazo[1,2-a]pyridine-3-carboxamide]
14 | O=C1CC[C@@H](NC(=O)C2CCOc3ccccc32)C(=O)N1 (stereo partly drawn) [Example 41, N-[(3R)-2,6-Dioxo-3-piperidyl]chromane-4-carboxamide]
3 | O=C1CC[C@@H](NC(=O)C2CCc3ncccc32)C(=O)N1 (stereo partly drawn) [Example 20, N-((R)-2,6-Dioxopiperidin-3-yl)-6,7-dihydro-5H-cyclopenta[b]pyridine-5-carboxamide]

Kd [nM] | Compound
4 | O=C1CC[C@H](NC(=O)N2CCCc3ccccc32)C(=O)N1 [Example 28, (S)-N-(2,6-Dioxopiperidin-3-yl)-3,4-dihydroquinoline-1(2H)-carboxamide]
28 | CN1C(=O)CCC(NC(=O)[C@H]2CCCc3ccccc32)C1=O (stereo partly drawn) [Example 73, (1S)-N-(1-Methyl-2,6-dioxopiperidin-3-yl)-1,2,3,4-tetrahydronaphthalene-1-carboxamide]
967 | O=C1CC[C@H](NC(=O)Cc2cccnc2)C(=O)N1 [Example 61, (S)-N-(2,6-Dioxopiperidin-3-yl)-2-(pyridin-3-yl)acetamide]
4 | Cn1nc(C(=O)N[C@H]2CCC(=O)NC2=O)c2c1CCN(C(=O)OC(C)(C)C)C2 [Example 71, tert-Butyl (S)-3-((2,6-dioxopiperidin-3-yl)carbamoyl)-1-methyl-1,4,6,7-tetrahydro-5H-pyrazolo[4,3-c]pyridine-5-carboxylate]
39 | O=C1CC[C@H](NC(=O)[C@@H]2CCCc3ccccc32)C(=O)N1 [Example 46, (1R)-N-[(3S)-2,6-Dioxopiperidin-3-yl]-1,2,3,4-tetrahydronaphthalene-1-carboxamide]
23 | CC(=O)Nc1ccc(CC(=O)N[C@H]2CCC(=O)NC2=O)cc1 [Example 65, (S)-2-(4-Acetamidophenyl)-N-(2,6-dioxopiperidin-3-yl)acetamide]
68 | O=C1CCC(NC(=O)C2CCc3ccccc32)C(=O)N1 (single isomer, unassigned; (-)) [Example 4, (−)-N-(2,6-Dioxopiperidin-3-yl)-2,3-dihydro-1H-indene-1-carboxamide]
< 1 | O=C1CCC(NC(=O)[C@H]2CCCc3ccccc32)C(=O)N1 (stereo partly drawn) [Example 15, (1S)-N-(2,6-Dioxopiperidin-3-yl)-1,2,3,4-tetrahydronaphthalene-1-carboxamide]
14 | O=C1CC[C@H](NC(=O)c2c[nH]c3ccccc23)C(=O)N1 [Example 17, (S)-N-(2,6-Dioxopiperidin-3-yl)-1H-indole-3-carboxamide]
641 | O=C1CC[C@@H](NC(=O)N2CCCc3cccnc32)C(=O)N1 [Example 64, (R)-N-(2,6-Dioxopiperidin-3-yl)-3,4-dihydro-1,8-naphthyridine-1(2H)-carboxamide]
4 | O=C1CC[C@H](NC(=O)c2ncc3ccccn23)C(=O)N1 [Example 50, (S)-N-(2,6-Dioxopiperidin-3-yl)imidazo[1,5-a]pyridine-3-carboxamide]
12 | O=C1CC[C@@H](NC(=O)[C@@H]2CCNc3ccccc32)C(=O)N1 [Example 44, (4R)-N-[(3R)-2,6-Dioxopiperidin-3-yl]-1,2,3,4-tetrahydroquinoline-4-carboxamide]
57 | CCCN1Cc2ccccc2C1C(=O)NC1CCC(=O)NC1=O (centres unmarked) [Example 3, N-(2,6-Dioxopiperidin-3-yl)-2-propylisoindoline-1-carboxamide]
25 | O=C1CC[C@H](NC(=O)C2CCc3cccnc32)C(=O)N1 (stereo partly drawn) [Example 23, N-((S)-2,6-Dioxopiperidin-3-yl)-6,7-dihydro-5H-cyclopenta[b]pyridine-7-carboxamide]
29 | CN(C(=O)N1CCc2cccnc21)C1CCC(=O)NC1=O (centres unmarked) [Example 62, N-(2,6-Dioxopiperidin-3-yl)-N-methyl-2,3-dihydro-1H-pyrrolo[2,3-b]pyridine-1-carboxamide]
26 | O=C1CC[C@@H](NC(=O)c2coc3ccccc23)C(=O)N1 [Example 34, (R)-N-(2,6-Dioxopiperidin-3-yl)benzofuran-3-carboxamide]
10 | Cc1sc2c(c1C)C(c1ccc(Cl)cc1)=N[C@@H](CC(=O)NCCCCCC(=O)N1CC[C@H](C(=O)N[C@H]3CCC(=O)NC3=O)c3ccccc31)c1nnc(C)n1-2 [Example A, (4S)-1-[6-[[2-[(9S)-7-(4-Chlorophenyl)-4,5,13-trimethyl-3-thia-1,8,11,12-tetrazatricyclo[8.3.0.02,6]trideca-2(6),4,7,10,12-pentaen-9-yl]acetyl]amino]hexanoyl]-N-[(3S)-2,6-dioxo-3-piperidyl]-3,4-dihydro-2H-quinoline-4-carboxamide]
30 | CN(C(=O)N1CCc2ccccc21)[C@@H]1CCC(=O)NC1=O [Example 60, (R)-N-(2,6-Dioxopiperidin-3-yl)-N-methylindoline-1-carboxamide]
60 | CC(=O)Nc1cccc(CC(=O)N[C@H]2CCC(=O)NC2=O)c1 [Example 68, (S)-2-(3-Acetamidophenyl)-N-(2,6-dioxopiperidin-3-yl)acetamide]
12 | O=C1CCC(NC(=O)C2CCCC2)C(=O)N1 (centres unmarked) [Example 11, N-(2,6-Dioxopiperidin-3-yl)cyclopentanecarboxamide]

Compound | Kd [nM]
O=C1CC[C@@H](NC(=O)C2CCc3cccnc32)C(=O)N1 (mixture of isomers) [Example 22] | < 1
